Measured values published in patent EP4120837B1, “INHIBITORS OF CYTOKININ OXIDASE DERIVED FROM 2-(3-PHENYLUREIDO)BENZAMIDE, USE THEREOF AND PREPARATIONS CONTAINING THESE DERIVATIVES” (Univerzita Palackého v Olomouci, priority 2020, dated 2021).
Read-outs that look alike come from different tables or passages of the source.

Molecular target: T1, ZmCKX1 (Zea mays, UniProt Q9T0N8)
T1 construct: made in house; host or cells: Yarrowia lipolytica
Assay: ZmCKX1 inhibition, PMS/MTT assay
Format: biochemical, maize
Protocol: The IC50 (concentration of a substance that causes 50% inhibition of the enzyme activity) was measured by PMS/MTT assay [phenazine methosulphate/3-(4,5-dimethylthiazol-2-yl)-2,5-diphenyltetrazolium bromide]. The assay was performed in 96-well microtiter plates. Each well contained a reaction mixture with a final concentration of: 0.1 M KH2PO4, pH 7.4, 1 mM MTT, 0.2 mM PMS, tested substance in a concentration range of 0.1 nM - 1 µM and 10 µM N^6-isopentenyladenine (iP) as a substrate. To this reaction mixture 100 µL of medium containing the active enzyme ZmCKX1 was added. The enzyme was produced by the yeast Yarrowia lipolytica and isolated according to the protocol (Kopečný D. et al., 2005, […] 87:1011-1022). The plates were incubated for 30 min at 37 °C and the enzymatic reaction was stopped by the addition of 25 µL of 35% acetic acid. Then, the absorbance at 578 nm was measured on a spectrophotometer, and the absorbance of the sample without the substrate was substracted as a reference value. The IC50 value was determined from the concentration-dependent curves in GraphPad Prism software. The values shown in Table 1 are the average of at least two measurements each performed in three repetitions. […] The substance 3,5DCl-Ph-U is 1-(3,5-dichlorophenyl)-3-phenylurea, which we have been prepared to compare its inhibitory activity with the compounds presented in the present invention. Addition of the amide group to the unsubstituted phenyl ring of this substance gives the compound 2AD-3,5DC, which has 42-fold better inhibitory activity with the ZmCKX1 enzyme than 3,5DCl-Ph-U. F-INCYDE ((2-fluoro-9H-purin-6-yl)-(3-methoxyphenyl)amine), CPPU (1-(2-chloropyridin-4-yl)-3-phenylurea), and DCPPU (1-(2,6-dichloropyridin-4-yl)-3-phenylurea) are substances known in the prior art.

[1] = 10 µM iP as substrate, pH 7.4, 30 min at 37 °C, average of at least two measurements, read-out: IC50 (µM) ZmCKX1
[2] = read-out: IC50 (µM) ZmCKX1, 10 µM iP as substrate, pH 7.4, 30 min at 37 °C, average of at least two measurements

T1 sequence (Q9T0N8 19-534): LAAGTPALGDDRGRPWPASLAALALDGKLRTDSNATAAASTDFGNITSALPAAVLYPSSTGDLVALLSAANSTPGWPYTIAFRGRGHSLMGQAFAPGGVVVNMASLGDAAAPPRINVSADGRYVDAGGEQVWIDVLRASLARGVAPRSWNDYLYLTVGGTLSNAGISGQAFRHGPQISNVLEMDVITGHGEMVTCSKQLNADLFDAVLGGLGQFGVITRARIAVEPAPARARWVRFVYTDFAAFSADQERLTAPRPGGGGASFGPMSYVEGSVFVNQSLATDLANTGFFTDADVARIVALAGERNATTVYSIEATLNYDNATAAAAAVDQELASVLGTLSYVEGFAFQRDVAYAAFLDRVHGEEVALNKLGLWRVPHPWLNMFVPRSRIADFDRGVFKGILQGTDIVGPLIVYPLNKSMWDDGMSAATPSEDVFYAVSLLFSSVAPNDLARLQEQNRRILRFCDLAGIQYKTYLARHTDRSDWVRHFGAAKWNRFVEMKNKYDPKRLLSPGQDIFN

SMILES | IC50 [1] [µM] | other results
NC(=O)c1ccccc1NC(=O)Nc1cc(Br)cc(Br)c1 [compound 7, 2-[3-(3,5-dibromophenyl)ureido]benzamide] | – | IC50: 0.047 µM
NC(=O)c1ccc(Br)cc1NC(=O)Nc1cccc(Cl)c1 [compound 18, 4-bromo-2-[3-(3-chlorophenyl)ureido]benzamide] | – | IC50 [2]: 0.011 µM
COc1ccc(C(N)=O)c(NC(=O)Nc2cccc(Br)c2)c1 [compound 23, 2-[3-(3-bromophenyl)ureido]-4-methoxybenzamide] | – | IC50: 0.033 µM
O=C(Nc1cccc(Cl)c1)Nc1cc(Br)ccc1C(=O)NCCCO [compound 52, 4-bromo-2-[3-(3-chlorophenyl)ureido]-N-(3-hydroxy-propyl)benzamide] | – | IC50 [2]: 0.08 µM
NC(=O)c1ccc(Cl)cc1NC(=O)Nc1cc(Cl)cc(Br)c1 [compound 17, 2-[3-(3-bromo-5-chlorophenyl)ureido]-4-chlorobenzamide] | – | IC50 [2]: 0.001 µM
O=C(Nc1cc(Cl)cc(Cl)c1)Nc1cc(Br)ccc1C(=O)NCCO [compound 48, 4-Bromo-2-[3-(3,5-dichlorophenyl)ureido]-N-(2-hydroxy-ethyl)benzamide] | – | IC50: 0.005 µM

Now from value to molecule, other results behind:

IC50 [1] [µM] | SMILES | other results
0.018 | NC(=O)c1ccc(F)cc1NC(=O)Nc1cc(Cl)cc(Cl)c1 [compound 13, 2-[3-(3,5-dichlorophenyl)ureido]-4-fluorobenzamide] | –
0.022 | O=C(Nc1cc(Cl)cc(Cl)c1)Nc1ccccc1C(=O)NCCO [compound 47, 2-[3-(3,5-dichlorophenyl)ureido]-N-(2-hydroxy-ethyl)benzamide] | –
0.15 | O=C(Nc1cccc(Cl)c1)Nc1ccccc1C(=O)NCCCO [compound 51, 2-[3-(3-chlorophenyl)ureido]-N-(3-hydroxy-propyl)benzamide] | –
0.058 | COc1ccc(C(N)=O)c(NC(=O)Nc2cccc(F)c2)c1 [compound 21, 2-[3-(3-fluorophenyl)ureido]-4-methoxybenzamide] | –
0.07 | Cc1cc(Cl)cc(NC(=O)Nc2ccccc2C(N)=O)c1 [compound 10, 2-[3-(3-chloro-5-methylphenyl)ureido]benzamide] | –
0.018 | COc1ccc(C(=O)NN)c(NC(=O)Nc2cc(Cl)cc(Cl)c2)c1 [compound 46, 1-(3,5-dichlorophenyl)-3-(2-hydrazinocarbonyl-5-methoxyphenyl)-urea] | –
0.004 | CCCNC(=O)c1ccc(OC)cc1NC(=O)Nc1cc(Cl)cc(Cl)c1 [compound 43, 2-[3-(3,5-dichlorophenyl)ureido]-4-methoxy-N-propylbenzamide] | –
0.009 | NC(=O)c1ccc(OC(F)(F)F)cc1NC(=O)Nc1cccc(Cl)c1 [compound 26, 2-[3-(3-chlorophenyl)ureido]-4-trifluoromethoxybenzamide] | –
